Experimental data taken from patent US20080176963A1, “TREATMENT OF BRAIN DISORDERS OF THE STRIATUM” (priority 2007, published 2008).
Read-outs that look alike come from different tables or passages of the source.

What was measured:
6-OHDA-treated mice [1] = format: in vivo, mouse
Experimental: (§1) Dopamine depletion and behaviour. Reserpine was administered i.p. at a concentration of 1 or 5 mgkg^−1, and electrophysiological and behavioural experiments were performed 18-24 h after injections. 6-Hydroxydopamine was injected bilaterally into the median forebrain bundle at a concentration of 5 μg μl^−1 to a total volume of 2 μL per side, and experiments were performed 48-60 h after injections. Catalepsy was measured with the bar test. Descent latency represents the time in seconds required for the mouse either to remove both paws from a bar (diameter 2 mm) placed 4 cm above the ground, or for one paw to touch the ground. Horizontal locomotor activity was measured in 15-min blocks with the ENV-510 test chamber and Activity Monitor software. Animals were tested 45-60 min after drug administration. All procedures involving animals were approved by the Institutional Animal Care and Use Committee.
(§2) 6-hydroxydopamine treatment Bilateral lesions of the substantia nigra pars compacta were achieved by injecting 6-OHDA Bromide (Sigma-Aldrich) into the right and left medial forebrain bundles. Mice were anesthetized with i.p. injections of ketamine (100 mg/kg)/xylazine (10 mg/kg) and placed into a stereotactic frame. 6-OHDA was prepared immediately before injections at a concentration of 5 μg/μL in 0.02% ascorbic acid. Injections were performed using 33 gauge cannulae (Plastics One) attached to a syringe pump (Harvard Apparatus) running at 0.5 μL/min, to a total volume of 2 μL/side at the following coordinates: AP: −1.5 mm; ML±1 mm; DV: 4.8 mm. Brain slices were obtained from 6-OHDA treated animals at 48-60 hour after injections.
(§3) Behavior. 3- to 4-week-old C57/BL6 wild-type mice were injected with reserpine (1 mg/kg i.p.) or 6-OHDA as described above. […] Animals were tested 18-24 hours after reserpine injections and 48-60 hours after 6-OHDA injections. […]
(§4) To test catalepsy, a horizontal bar (2 mm diameter) was placed 4 cm above the ground. […] Descent latency was measured as the delay to when either both paws were removed from the bar or one paw touched the ground. […]

[2] = tested on: indirect-pathway MSN synapses; experiment: LTD induced by tetanic stimulation in striatal slices from reserpine-treated mice; format: cell-based, mouse
reserpine-treated mice [3] = experiment: Catalepsy bar test in reserpine-treated mice; format: in vivo, mouse
Experimental: as §1
(§5) Reserpine treatment. To study the effects of dopamine depletion, reserpine (Sigma-Aldrich) was dissolved in 1% glacial acetic acid at a concentration of 2.5 mg/mL. This solution was diluted with dH20 by a factor of 10, to yield a final concentration of 0.1% glacial acetic acid and 250 μg/mL reserpine This reserpine solution was injected i.p. at a concentration of 1 mg/kg or 5 mg/kg as stated in the text.
(§6) Behavior. 3- to 4-week-old C57/BL6 wild-type mice were injected with reserpine (1 mg/kg i.p.) or 6-OHDA as described above. […] Animals were tested 18-24 hours after reserpine injections and 48-60 hours after 6-OHDA injections. […] All drugs were injected i.p. in 0.9% NaCl at a volume of 20 μL/gm. The injection solution for URB597 was prepared by diluting a stock solution prepared in DMSO into saline, with a final concentration of 0.5% DMSO. Animals were then tested again at 45-60 minutes following drug injections. […]
as §4

[4] = tested on: indirect-pathway MSN synapses; format: cell-based, mouse
reserpine-treated mice [5] = experiment: Open-field locomotor activity in reserpine-treated mice; format: in vivo, mouse
Experimental: as §1, §5, §6, §4

6-OHDA-treated mice [6] = conditions: mouse, in vivo
Experimental: as §1, §2, §3, §4

medium spiny neurons = experiment: Effect of drug wash-in alone on EPSC amplitudes in striatal MSNs; format: cell-based, mouse; conditions: URB597 1 μM; URB754 5 μM
[7] = tested on: indirect-pathway MSN synapses; experiment: LTD induced by high-frequency afferent stimulation, whole-cell recording in striatal slices of control mice; format: cell-based, mouse; conditions: indirect-pathway MSNs; AM251 1 μM; sulpiride 10 μM; methysergide 4 μM, GR125487 1 μM, LY278584 1 μM, prazosin 2 μM, propranolol 1 μM; without drug 51±5%
[8] = tested on: indirect-pathway synapses; experiment: DHPG-elicited depression of EPSCs (eCB-LTD), indirect pathway; format: cell-based, mouse
direct-pathway synapses [9] = experiment: DHPG-elicited depression of EPSCs (eCB-LTD), direct pathway; format: cell-based, mouse; conditions: DHPG 100 μM for 10 min, MSNs held at +50 mV (so in the source)
[10] = tested on: indirect-pathway synapses; experiment: Presynaptic inhibition of EPSCs by CB1 receptor agonist, indirect pathway; format: cell-based, mouse; conditions: WIN55,212 1 μM
direct-pathway synapses [11] = experiment: Presynaptic inhibition of EPSCs by CB1 receptor agonist, direct pathway; format: cell-based, mouse; conditions: WIN55,212 1 μM; control mice
striatal dopamine = conditions: 18-24 hours after reserpine injection; cited from earlier work
direct pathway neurons = experiment: LTD induction at direct pathway synapses in striatal slices; format: cell-based, mouse; conditions: URB754 5 μM
MSNs = experiment: Block of carbachol-induced inward membrane current in MSNs; format: cell-based, mouse; conditions: pirenzepine; data not shown
Description: FIG. 5. […] The arrow marks the time of LTD induction. […] Error bars are ±SEM.

tyrosine hydroxylase = experiment: Tyrosine hydroxylase staining of striatum after 6-OHDA; format: in vivo, mouse; conditions: 48 hours after bilateral 6-OHDA injection (5 μg/μL, 2 μL/side)
Experimental: as §2
Tyrosine hydroxylase staining. The degree of dopamine denervation was assessed at 48 hours post-injection in a subset of 6-OHDA-treated mice by tyrosine hydroxylase (TH) staining. Mouse forebrains were fixed at 4° C. for 1 hour in 4% paraformaldehyde (in PBS), and then kept in PBS overnight at 4° C. Brains were transferred to 30% sucrose (in PBS) for 2 hours, blocked in O.C.T. and frozen. […] coronal slices containing the striatum were collected on slides using a cryostat. […] Images were acquired on a Zeiss Axioskop 2 coupled to a Hamamatsu CCD and analyzed using Metamorph software.

Structure (SMILES): NC(=O)c1cccc(-c2cccc(OC(=O)NC3CCCCC3)c2)c1 [URB597]
- Descent latency, catalepsy bar test (6-OHDA-treated mice [1]; mouse, in vivo): no significant decrease in catalepsy
- EPSC after LTD induction, % of baseline at 30-40 min [2]: 62±5 % of baseline
- Descent latency, catalepsy bar test (reserpine-treated mice [3]; mouse, in vivo): no significant decrease in catalepsy
- EPSC after LTD induction, % of baseline at 30-40 min [4]: 55±7 % of baseline
- Distance traveled in 15 min, open field (reserpine-treated mice [5]; mouse, in vivo): no significant decrease in catalepsy or increase in locomotor activity
- Distance traveled in 15 min, open field (6-OHDA-treated mice [6]): no significant decrease in catalepsy or increase in locomotor activity
- Effect of drug alone on EPSC amplitudes / synaptic transmission (medium spiny neurons): no effect

Structure (SMILES): CCN1CCCC1CNC(=O)c1cc(S(N)(=O)=O)ccc1OC (centres unmarked) [sulpiride]
- EPSC after LTD induction, % of baseline at 30-40 min [7]: 96±12 % of baseline

Structure (SMILES): N[C@H](C(=O)O)c1cc(O)cc(O)c1 [DHPG, (S)-3,5-dihydroxyphenylglycine]
- EPSC, % of baseline at 20-30 min after brief DHPG application ([8]; DHPG 100 μM for 1 min, alone or in the presence of quinpirole 10 μM or URB754): 98±5 % of baseline
- EPSC, % of baseline at 30-40 min ([8]; DHPG 100 μM for 10 min, MSNs held at +50 mV (so in the source)): 64±5 % of baseline
- EPSC, % of baseline at 30-40 min (direct-pathway synapses [9]): 95±9 % of baseline

Structure (SMILES): Cc1c(C(=O)c2cccc3ccccc23)c2cccc3c2n1[C@H](CN1CCOCC1)CO3 [WIN55,212]
- EPSC, % of baseline at 15-20 min after wash-in ([10]; control mice): 47±7 % of baseline
- EPSC, % of baseline at 15-20 min after washing ([10]; dopamine-depleted animals (reserpine and 6-OHDA pooled)): 58±5 % of baseline
- EPSC, % of baseline at 15-20 min after wash-in (direct-pathway synapses [11]): 56±8 % of baseline

Structure (SMILES): COC(=O)[C@H]1[C@H]2C[C@@H]3c4[nH]c5cc(OC)ccc5c4CCN3C[C@H]2C[C@@H](OC(=O)c2cc(OC)c(OC)c(OC)c2)[C@@H]1OC [reserpine]
- EPSC after LTD induction, % of baseline at 30-40 min ([2]; mice given reserpine 5 mg/kg i.p. 18-24 h earlier, in bath quinpirole 10 μM, URB597 1 μM or URB754 5 μM, reserpine line = no drug in bath): 122±8 % of baseline
- Descent latency, catalepsy bar test (reserpine-treated mice [3]; reserpine 1 mg/kg i.p. 18-24 h before, URB597 1 mg/kg i.p., quinpirole 1.5 mg/kg i.p., alone or together, 60 s maximum, reserpine line = before drug): more than 60 s
- Distance traveled in 15 min, open field (reserpine-treated mice [5]; reserpine 1 mg/kg i.p. 18-24 h before, URB597 1 mg/kg i.p., quinpirole 1.5 mg/kg i.p., 45-60 min after injection, reserpine line = before drug): 48±11 cm
- Striatal dopamine (striatal dopamine): < 1 % of normal levels

Structure (SMILES): Cc1ccc(Nc2nc3ccc(C)cc3c(=O)o2)cc1 [URB754]
- Descent latency, catalepsy bar test (6-OHDA-treated mice [1]; 6-OHDA-treated mice, URB754 1.5 mg/kg i.p., quinpirole 1.5 mg/kg i.p., alone or coadministered): no significant decrease in catalepsy
- EPSC after LTD induction, % of baseline at 30-40 min [2]: 68±13 % of baseline
- EPSC, % of baseline at 20-30 min after brief DHPG application [8]: 84±6 % of baseline
- LTD at direct pathway neurons in the presence of drug (direct pathway neurons): nor did it unmask LTD
- Descent latency, catalepsy bar test (reserpine-treated mice [3]; reserpine-treated mice, URB754 1.5 mg/kg i.p., quinpirole 1.5 mg/kg i.p., alone or coadministered): no significant decrease in catalepsy
- EPSC after LTD induction, % of baseline at 30-40 min [4]: 69±9 % of baseline
- Distance traveled in 15 min, open field (reserpine-treated mice [5]; mouse, in vivo): no significant decrease in catalepsy or increase in locomotor activity
- Distance traveled in 15 min, open field (6-OHDA-treated mice [6]): no significant decrease in catalepsy or increase in locomotor activity
- Effect of drug alone on EPSC amplitudes / synaptic transmission (medium spiny neurons): no effect

Structure (SMILES): CN1CCN(CC(=O)N2c3ccccc3C(=O)Nc3cccnc32)CC1 [pirenzepine]
- Block of carbachol-induced inward membrane current (MSNs): block a carbachol-induced inward membrane current

Structure (SMILES): NCCc1cc(O)c(O)cc1O [6-OHDA, 6-hydroxydopamine]
- Descent latency, catalepsy bar test (6-OHDA-treated mice [1]; mouse, in vivo): 45 ± 4 s
- Immunoreactivity for tyrosine hydroxylase in the striatum (tyrosine hydroxylase): 34±4 % of control
- EPSC after LTD induction, % of baseline at 30-40 min [4]: 111±13 % of baseline
- Distance traveled in 15 min, open field (6-OHDA-treated mice [6]): 236±52 cm
